Measurements reported in patent US6100256A, “Use of NK-1 receptors antagonists for treating schizophrenic disorders” (priority 1996, dated 2000).
Read-outs that look alike come from different tables or passages of the source.

Molecular target: T1, NK-1 receptor (Meriones unguiculatus, UniProt Q5DUB1)
T1 construct: from tissue; host or cells: central nervous system of living Mongolian gerbils (in vivo, agonist infused i.c.v.)
Assay: Gerbil foot-tapping induced by central NK-1 receptor agonist (GR73632)
Type: in vivo, Mongolian gerbils
Conditions: iv
From the text: Assay 2: Gerbil Foot-Tapping
CNS-penetrant NK-1 receptor antagonists for use in the present invention can be identified by their ability to inhibit foot tapping in gerbils induced by anxiogenic agents (such as pentagastrin) or central infusion of NK-1 receptor agonists such as GR73632, or caused by aversive stimulation such as foot shock or single housing, based on the method of Rupniak & Williams, Eur. J. Pharmacol., 1994, 265, 179.
Male or female Mongolian gerbils (35-70 g) are anaesthetised by inhalation of an isoflurane/oxygen mixture to permit exposure of the jugular vein in order to permit administration of test compounds or vehicle in an injection volume of 5 ml/kg i.v. Alternatively, test compounds may be administered orally or by subcutaneous or intraperitoneal routes. A skin incision is then made in the midline of the scalp to expose the skull. […]

T1 sequence (Q5DUB1 whole entry, the tested form may be a part): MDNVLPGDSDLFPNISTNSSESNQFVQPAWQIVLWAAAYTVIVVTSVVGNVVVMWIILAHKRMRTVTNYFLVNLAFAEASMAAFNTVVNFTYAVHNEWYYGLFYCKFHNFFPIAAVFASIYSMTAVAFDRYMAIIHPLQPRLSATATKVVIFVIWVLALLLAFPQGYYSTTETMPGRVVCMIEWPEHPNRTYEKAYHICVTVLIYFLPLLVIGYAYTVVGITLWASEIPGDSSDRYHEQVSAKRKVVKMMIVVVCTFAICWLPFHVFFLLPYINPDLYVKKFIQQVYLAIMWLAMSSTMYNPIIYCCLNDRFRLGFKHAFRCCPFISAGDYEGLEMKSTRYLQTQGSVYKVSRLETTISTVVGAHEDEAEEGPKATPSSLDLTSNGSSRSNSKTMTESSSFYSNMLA

SMILES: OC[C@@H](O[C@H]1OCCN(Cc2nc[nH]n2)[C@H]1c1ccc(F)cc1)c1cc(C(F)(F)F)cc(C(F)(F)F)c1 [2-(R)-(1-(S)-(3,5-bis(trifluoromethyl)phenyl)-2-hydroxyethoxy)-3-(S)-(4-fluorophenyl)-4-(1,2,4-triazol-3-yl)methylmorpholine]
- ED50 (5 min, i.v., 5 mins., administered immediately prior to central NK1 agonist challenge, read-out: gerbil foot-tapping (5 mins.): ID50): 0.38 mg/kg
- ED50 (24 hrs. prior to central NK1 agonist challenge, read-out: gerbil foot-tapping (24 hrs.): ID50): 2.2 mg/kg
